The subject of this assay is A-431. Put plainly: Inhibition of EGF-induced [3H]inositol incorporation in to phosphatidylinositol in human A431 cells after 60 mins by liquid scintillation spectrophotometry. It counts as functional, cell-based.

In general, IC50 refers to the midpoint of a concentration-inhibition curve. A higher IC50 goes with a need for much substance.

Structures are written as SMILES. ≈ marks a conversion by molar mass, not a printed value. Calls of active or inactive are those of the source. The rule behind the calls is not given here.

On to `CC[C@@H](C(=O)[C@@H](C)[C@@H](O)[C@@H](C)[C@H]1O[C@@H](CC(=O)OO)[C@H](C)C[C@@H]1C)[C@H]1O[C@](C)([C@]2(O)O[C@](CC)([C@@H](O)CC)C[C@H]2C)C[C@@H]1C`, for which the result was Active.

`CCC[C@H](O)[C@@]1(CC)C[C@@H](C)[C@](O)([C@]2(C)C[C@H](C)[C@@H]([C@@H](CC)C(=O)[C@@H](C)[C@@H](O)[C@H](C)[C@H]3O[C@@](O)([C@H](CC)C(=O)O)[C@@H](C)[C@H](O)[C@H]3CC)O2)O1` [INOSTAMYCIN] came in with a half-maximal inhibitory concentration (IC50) of 0.5 µg/mL (≈ 0.713 µM).

Regarding `CC[C@@]1([C@@H]2O[C@@H]([C@H]3O[C@@](O)(CO)[C@H](C)C[C@@H]3C)C[C@@H]2C)CC[C@H]([C@]2(C)CC[C@]3(C[C@H](O)[C@@H](C)[C@@H]([C@@H](C)[C@@H](OC)[C@H](C)C(=O)O)O3)O2)O1`, the result was inactive.

For the origin of these results see ChEMBL document CHEMBL1158911, “Isolation and Structure Determination of Inostamycin, a Novel Inhibitor of Phosphatidylinositol Turnover” (J Nat Prod, 1990).
